Data published in PubChem BioAssay (NCI).
Several values for one entry are separate records, joined by “and”; a condition that tells them apart may be missing. Equal values may be shown once.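 Exposure lasted 48 hours, with cells grown in 96-well plates and compounds tested at five concentrations. Here, GI50 denotes the concentration required for 50% inhibition of growth. Definition used: TGI = concentration required for complete inhibition of growth.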

Experiments:
Assay in all cases: NCI tumour cell line growth inhibition, 48 h
[1] = system: KM20L2 colon
[2] = system: DMS 273 small cell lung
[3] = system: DLD-1 colon
[4] = system: LXFL 529 NSCLC
[5] = system: DMS 114 small cell lung
[6] = system: XF 498 CNS
[7] = system: HOP-18 NSCLC
[8] = system: MDA-N
[9] = system: P388/ADR leukemia
[10] = system: RXF-631 renal

Row | SMILES | TGI [1] [µM] | TGI [2] [µM] | TGI [3] [µM] | TGI [4] [µM] | TGI [5] [µM] | TGI [6] [µM] | TGI [7] [µM] | GI50 [2] [µM] | TGI [8] | TGI [9] [µM] | GI50 [5] [µM] | GI50 [6] [µM] | TGI [10] [µM] | GI50 [8]
1 | N/N=C1/C(=O)N(c2ccc(Cl)cc2)C(=O)C(=O)C1c1nc2ccccc2s1 (stereo not given) | > 100 | > 100 | > 100 | > 100 | > 100 | > 100 | > 100 |  |  |  |  |  |  | 
2 | NN=C1/C(=C\c2ccccc2)CCC/C1=C/c1ccccc1 | > 100 | > 100 | > 100 | > 100 | 75.1 |  | > 100 |  |  |  |  |  |  | 
3 | COc1cc(C2c3cc4c(cc3[C@@H](Nc3ccc(F)cc3)C3COC(=O)[C@H]23)OCO4)cc(OC)c1O (stereo not given in full) | 19.8 | 6.46 | 28.5 | 46.6 | 9.63 | 18.2 | 46.8 | 0.403 | > 100 µM | 1.63 | 0.997 | 0.718 |  | 
4 | COC1=CC(=O)C2(C=C1OC)OC[C@H]1Oc3c(ccc4c3C=CC(C)(C)O4)C(=O)[C@H]12 (stereo not given in full) | > 100 | > 100 | > 100 | > 100 | 94.5 | > 100 |  |  |  |  |  |  | > 100 | 
5 | O=C1c2c(c3c4ccccc4n(CC4CO4)c3c3[nH]c4ccccc4c23)C(=O)N1Cc1ccccc1 (stereo not given) |  | > 100 |  | > 100 | > 100 | > 100 |  |  |  |  |  |  | > 100 | 
6 | O=C(Nc1c[nH]c(=O)[nH]c1=O)Oc1ccccc1 |  |  |  |  |  |  |  |  | > 100 µM |  |  |  |  | 
7 | CCN(CC)c1ccc(N=Nc2ccc(-c3nc4cccnc4s3)cc2)cc1 | > 100 |  | > 100 | > 100 | > 100 | 72.1 |  |  |  |  |  |  |  | 
8 | CSCSCC(CO)NC(=O)/C=C/c1c(C)[nH]c(=O)[nH]c1=O (stereo not given) | > 100 | > 100 | > 100 | > 100 | > 100 |  | > 100 |  |  |  |  |  |  | 
9 | COc1cc2c3c(c4cc(OC)c(OC)cc4c2cc1OC)CN1CCC[C@H]1C3 |  |  |  |  |  |  |  |  | 6.57 µM and 0.776 µM |  |  |  |  | 0.0817 µM and < 0.0129 µM
10 | COc1ccc2c(Cl)cc(NC(=S)Nc3ccccc3)nc2c1 |  |  |  |  |  |  |  |  | 32.4 µM |  |  |  |  | 
11 | CCCCCCNC(=O)CCN(C(=O)O)S(=O)(=O)c1ccc(NC(=O)c2ccccc2)cc1 | > 100 | > 55.2 | 43.2 | > 100 | > 53.1 | > 100 | > 100 |  |  |  |  |  |  | 
12 | O=C1OC(c2ccccc2)=N/C1=C\c1ccccc1 |  |  |  |  |  |  |  |  | > 100 µM |  |  |  |  | 
13 | NP1(Oc2ccc(F)cc2)=NP(N)(Oc2ccc(F)cc2)=NP(Oc2ccc(F)cc2)(Oc2ccc(F)cc2)=N1 (stereo not given) |  |  |  |  |  |  |  |  | 19 µM |  |  |  |  | 
14 | COc1ccc2c(c1O)[C@@]13CCCC=C1[C@@H](C2)N(C)CC3 |  |  |  |  |  |  |  |  | > 100 µM |  |  |  |  | 
15 | O=C(CC1(O)C(=O)Nc2ccccc21)c1cccc(O)c1 (stereo not given) | > 100 | > 100 | > 100 | > 100 | > 100 | > 100 |  |  |  |  |  |  | > 100 | 
16 | COc1cccc(NC(=O)/C(CS(=O)(=O)CCC(C(C)=O)C(C)=O)=N\NC(C)(C)C)c1 | > 100 | > 100 | > 100 | > 100 | > 100 |  | > 100 |  |  |  |  |  |  | 
17 | CC(=O)O[C@H]1CSC[C@@H](OC(C)=O)C1[N+](=O)[O-] (stereo not given in full) | > 100 | > 100 |  | 34 | > 100 |  | > 100 |  |  |  |  |  | > 100 | 
18 | Cc1ccccc1NC(=O)C(=O)C(C(=O)c1ccccc1F)C1OC(=O)c2ccccc21 (stereo not given) | > 100 | 64.5 | 57.7 | 75.3 | 53.3 |  | 79.4 |  |  |  |  |  | 73.6 | 
19 | O=C(O)CN(CCN(CC(=O)O)CC(=O)O)CC(=O)O.[Cu+2].[Na+] |  |  |  |  |  |  |  |  | > 100 µM |  |  |  |  | > 100 µM
20 | COC(=O)CC(=O)OC1C[C@@H]2CCC3C(C)(C)CCC[C@]3(C)C23CC[C@@]1(C)C3 (stereo not given in full) | 37.6 |  | 34.2 |  | 37.9 | 34.4 |  |  |  |  |  |  |  | 
21 | CC(=O)OC1(C(C)=O)CC2(c3ccccc3)OC1(c1ccccc1)c1ccccc12 (stereo not given) | > 100 | 22.2 | > 100 | > 100 | 12.5 | 33.3 | > 100 |  |  |  |  |  | > 100 | 
22 | CN(C(=O)C12C3C4C1C1C2C3C41C#N)C(C)(C)C (stereo not given) | > 100 | > 100 | > 100 | > 100 | > 100 |  |  |  |  |  |  |  | > 100 | 
23 | O=C1N(c2ccc(Cl)cc2)C(=O)C2(SC=NN2Cc2ccccc2)N1c1ccc(Cl)cc1 (stereo not given) | > 100 |  | > 100 | > 100 | > 100 | 94.4 | > 100 |  |  |  |  |  | > 100 | 
